Consider 27 compounds from publication PMC9539280 (Advanced Science, 2022).

Where a name gives a salt, the structure may show the parent alone. Read-outs that look alike come from different tables or passages of the source.

The conditions of data set [1]: cited from earlier work.
For data set [2] the following is noted: cited from earlier work; for Cardiotoxic effects: reported clinical cardiotoxic effects of the repurposed drug, 10a,b, 10c, 41, 42.
Data set [3] concerns hCMs (human pluripotent stem cell-derived cardiomyocytes). The experiment in a line: Cytotoxicity assay, calcein-AM/PI double staining, relative cell viability. It counts as cell-based. To be noted: for cell viability of hCMs: 6 days, escalating concentrations (0.03-3 or 1-30 × 10^−6 M), calcein-AM/PI; for effects on normal hCMs (viability, apoptosis, sarcomere organization): absence of remdesivir, 3 μM and 10 μM. The procedure:
(§1) hCMs were dissociated with 0.25% trypsin/EDTA (25200072, Gibco) and then seeded into 384‐well plates at the density of 8 × 10^3 cells per well. 24 h after seeding, cells were exposed to the drugs at the indicated concentrations for 6 days. Culture media were fully changed every 3 days with new drug supplementation. After drug treatment, cells were stained with calcein‐AM/PI/Hoechst for 20 min using calcein‐AM/PI double staining kit (C542, DOJINDO). Images were captured by the Operetta CLS High‐Content Analysis System (PerkinElmer). Number of live cells (calcein‐AM+/PI‐) and dead cells (PI+) was quantified by using the Harmony 4.9 software (PerkinElmer). Number of live cells was used to calculate the “relative cell viability” as follows (1) relarivecellviability=numberoflivecellsineachtreatment/numberoflivecellsinDMSOcontrol×100%

Data set [4] deals with hCMs. Put plainly: TUNEL apoptosis assay in hCMs. To be noted: 6 days.
Data set [5] deals with hEHTs (human engineered heart tissues). The experiment in a line: TUNEL/α-actinin staining of hEHTs. The conditions noted are these: 2 × 10^−6 and 5 × 10^−6 M for 3 days.
For data set [6], the system named is hCMs. Put plainly: Sarcomere organization by α-actinin immunostaining in hCMs. To be noted: 6 days.
In data set [7] the test system is hCMs. The experiment in a line: Spontaneous calcium transient measurement (Fluo-4) in hCMs. The conditions noted are these: spontaneous, 6 days; for calcium transient amplitude: escalating concentrations (1-20 μM).
The subject of data set [8] is hCMs. The experiment in a line: Calcium measurement in hCMs under electrical field stimulation.
Data set [9] relates to hCMs. The experiment in a line: Mitochondrial (MitoSox) and intracellular (DCFH-DA) ROS measurement in hCMs. It counts as cell-based, human. To be noted: remdesivir 10 μM, 4 or 6 days; for could alter the level of ROS in hCMs when co-stimulated with remdesivir: Asta 10 μM, Vc 50 μg/ml, Vb1 10 μg/ml, NAC 1 mM, GSH 25 μg/ml. As to the method:
Mitochondrial‐associated ROS and intracellular ROS were measured using MitoSox Red Mitochondrial Superoxide Indicator (M‐36008, ThermoFisher) and DCFH‐DA (S0033S, Beyotime), respectively. For mitochondrial‐associated ROS measurement, hCMs were loaded with 4 × 10^−6 M MitoSox dye in Hanks' balanced salt solution buffer for 15 min at 37 °C and washed twice with PBS. The MitoSox fluorescence (excitation/emission = 510/580 nm) was detected and quantified by the Operetta CLS High‐Content Analysis System. For intracellular ROS measurement, hCMs were loaded with 10 × 10^−6 M DCFH‐DA in serum‐free medium for 20 min at 37 °C and washed twice with serum‐free medium. The DCFH fluorescence (excitation/emission = 488/525 nm) was detected and quantified by the Operetta CLS High‐Content Analysis System.

Data set [10] has as its system hCMs. The arrangement: method as in PMID 34142159. The conditions noted are these: ref 25a; cited from earlier work.
Data set [11] relates to hEHTs (human engineered heart tissues). Put plainly: Contractile force / spontaneous contractility of hEHTs.
Another data set has as its system remdesivir-treated hCMs. Put plainly: High-throughput screening and validation of compounds protective against remdesivir (cell viability). To be noted: 10 × 10^−6 or 25 × 10^−6 M remdesivir for 6 days with co-administration. It counts as cell-based, human. As to the method: as §1
hCMs were seeded into 384‐well plates at a density of 8 × 10^3 cells per well. 24 h after seeding, the cells were treated with either 25 × 10^−6 M remdesivir alone or remdesivir with the chemicals from a Bioactive Compound Library (Topscience) consisted of 2464 natural compounds and US FDA‐approved drugs for 6 days. Chemicals at the concentration of 5 × 10^−6 M were transferred to the plates by using a Tecan Freedom EVO 150 liquid handler.

[12] abbreviates: read-out: C max, maximum plasma concentration, ref U.S. FDA or published literature.
[13] abbreviates: escalating concentrations (lopinavir: high dosage only).

`C[C@H]1[C@H](OC(=O)CCC(=O)O)O[C@@H]2O[C@@]3(C)CC[C@H]4[C@H](C)CC[C@@H]1[C@@]24OO3` [Artesunate, artesunate]: the Cmax in data set [1] (in vivo) was 0.17 µM.
For `CC[C@H]1OC(=O)[C@H](C)[C@@H](O[C@H]2C[C@@](C)(OC)[C@@H](O)[C@H](C)O2)[C@H](C)[C@@H](O[C@@H]2O[C@H](C)C[C@H](N(C)C)[C@H]2O)[C@](C)(O)C[C@@H](C)CN(C)[C@H](C)[C@@H](O)[C@]1(C)O` [Azithromycin, azithromycin], the Cardiotoxic effects result in data set [2] is “Ventricular arrhythmias^[ [42] ^]”. Besides, in data set [1] (setting [12]), the Cmax is 0.67 µM.
On to `CCS(=O)(=O)N1CC(CC#N)(n2cc(-c3ncnc4[nH]ccc34)cn2)C1` [Baricitinib, baricitinib], for which the Cmax in data set [1] (setting [12]) was 3.69 µM.
Turning to `Cc1c(-c2ccc(-c3ccccc3F)cc2)nc2ccc(F)cc2c1C(=O)O` [Brequinar, brequinar], in data set [1] (in vivo), the Cmax is 16 µM.
As for `CCN(CC)CCCC(C)Nc1ccnc2cc(Cl)ccc12` (stereo not drawn) [Chloroquine, chloroquine], in data set [1] (setting [12]), the Cmax was 1.17 µM.
Regarding `CC(C)CN(C[C@@H](O)[C@H](Cc1ccccc1)NC(=O)O[C@H]1CO[C@H]2OCC[C@H]21)S(=O)(=O)c1ccc(N)cc1` [Darunavir, darunavir], the Cmax in data set [1] (setting [12]) was 12.7 µM.
Regarding `NC(=O)c1nc(F)c[nH]c1=O` [Favipiravir, favipiravir], in [1] (in vivo), the Cmax was 115 µM.
On to `COCCCC/C(=N\OCCN)c1ccc(C(F)(F)F)cc1` [Fluvoxamine, fluvoxamine], for which the Cmax in data set [1] (setting [12]) was 0.73 µM.
In the case of `CCN(CCO)CCCC(C)Nc1ccnc2cc(Cl)ccc12` (stereo not drawn) [Hydroxychloroquine, hydroxychloroquine], in [2], the Cardiotoxic effects result was “QTc prolongation^[ [41] ^]”. The Cmax in [1] (in vivo) was 1.35 µM.
On to `Cc1cccc(C)c1OCC(=O)N[C@@H](Cc1ccccc1)[C@@H](O)C[C@H](Cc1ccccc1)NC(=O)[C@H](C(C)C)N1CCCNC1=O` [Lopinavir, lopinavir], for which the “cell viability of hCMs” value in data set [3] is reported as “dose‐dependent decrease”. In data set [1] (in vivo), the Cmax was 42.1 µM. For the same compound, the “apoptosis of hCMs (TUNEL)” value in the data set on hCMs [4] is reported as “increased apoptosis”. Also, the “toxicity to hEHTs” value in data set [5] is given as “toxic to hEHTs”. The “sarcomere organization of hCMs” value in the data set with hCMs [6] is given as “sarcomeric disarray”. Also, in the data set with hCMs [7], the calcium transient amplitude entry was “tended to decrease”. Further, in the data set with hCMs [7] (setting [13]), the “time to 50% decay of the calcium transients” value is “significantly increased” and the “time to peak of the calcium transients” value is “significantly increased”. In the data set on hCMs [8], the “intracellular calcium handling properties of hCMs” value is on record as “impair”.
For the compound `C[C@H]1C[C@@H]2[C@H]([C@@H](O)C[C@@]3(C)[C@H]2CC[C@]3(O)C(=O)CO)[C@@]2(C)C=CC(=O)C=C12` [Methylprednisolone, methylprednisolone], the Cmax in [1] (in vivo) is 1.26 µM.
`CC(C)C(=O)OC[C@H]1O[C@@H](n2ccc(NO)nc2=O)[C@H](O)[C@@H]1O` [Molnupiravir, molnupiravir]: the Cmax in data set [1] (in vivo) was 10 to 15 µM.
Turning to `CC(C)(C)[C@H](NC(=O)C(F)(F)F)C(=O)N1C[C@H]2[C@@H]([C@H]1C(=O)N[C@H](C#N)C[C@@H]1CCNC1=O)C2(C)C` [Nirmatrelvir, nirmatrelvir], in data set [1] (in vivo), the Cmax was 6.66 µM.
As for `CC(=O)Oc1ccccc1C(=O)Nc1ncc([N+](=O)[O-])s1` [Nitazoxanide, nitazoxanide], the Cmax in data set [1] (in vivo) is 17.5 µM.
Take `CC(=O)N[C@@H](CS)C(=O)O` [N‐acetylcysteine]: the “could alter the level of ROS in hCMs when co-stimulated with remdesivir” value (shortened to “could alter the level of ROS in hCMs”) with hCMs [9] is reported as “neither”.
Turning to `CC1(C)C(=O)N(c2ccc(C#N)c(C(F)(F)F)c2F)C(=S)N1c1ccc(CCCc2ncco2)nc1` [Proxalutamide, proxalutamide], the Cmax in data set [1] (setting [12]) was 29 µM.
For `CCC(CC)COC(=O)[C@H](C)N[P@](=O)(OC[C@H]1O[C@@](C#N)(c2ccc3c(N)ncnn23)[C@H](O)[C@@H]1O)Oc1ccccc1` [Remdesivir, remdesivir], the “cell viability of hCMs” value in data set [3] is on record as “dose‐dependent decrease”. In addition, in the data set on hCMs [9] (MitoSox and DCFH-DA), the “ROS level in hCMs” value is “did not alter”. In addition, the Cardiotoxic effects result in data set [2] was “Cardiac arrest,^[ [10a,b] ^] heart failures,^[ [10c] ^] arrhythmias^[ [10c] ^]”. Also, in the data set on hCMs [10], the “ROS levels in hCMs” value is on record as “does not alter”, the mitochondrial fragmentation entry is “induce mitochondrial fragmentation” and the mitochondrial respiration entry was “suppress mitochondrial respiration”. The Cmax in data set [1] (setting [12]) was 9.03 µM. The “apoptosis of hCMs (TUNEL)” value with hCMs [4] is given as “increased apoptosis”. For the same compound, the “toxicity to hEHTs” value in [5] is “toxic to hEHTs”. Besides, in data set [11], the “hEHT function (tissue level cardiotoxicity)” value is listed as “weaken hEHT function”. The “abnormal beating of hEHTs (spontaneous contractility)” value in data set [11] (2 × 10^−6 or 5 × 10^−6 M for 3 days) is on record as “more severe”. Besides, the “passive force of hEHTs” value in data set [11] (3 days) was “increases of the passive force”. In addition, the “contractile force of hEHTs” value in data set [11] (progressive stretch 0-12%, 3 days) is on record as “much lower”. For the same compound, the “sarcomere organization of hCMs” value in the data set on hCMs [6] was “sarcomeric disarray”. For the same compound, the “intracellular calcium handling properties of hCMs” value in the data set with hCMs [8] is “impair”.
With `CC(C)c1nc(CN(C)C(=O)N[C@H](C(=O)N[C@@H](Cc2ccccc2)C[C@H](O)[C@H](Cc2ccccc2)NC(=O)OCc2cncs2)C(C)C)cs1` [Ritonavir, ritonavir], in data set [2], the Cardiotoxic effects entry is “QTc prolongation and arrhythmias^[ [9] ^]”. The Cmax in [1] (in vivo) was 1.32 µM. In the data set on hCMs [4], the “apoptosis of hCMs (TUNEL)” value was “increased apoptosis”. In addition, the “toxicity to hEHTs” value in data set [5] is “toxic to hEHTs”. The “sarcomere organization of hCMs” value in the data set on hCMs [6] is “sarcomeric disarray”. The calcium transient amplitude entry in the data set with hCMs [7] was “tended to decrease”. In addition, in the data set on hCMs [8], the “intracellular calcium handling properties of hCMs” value is “impair”.
As for `N#CC[C@H](C1CCCC1)n1cc(-c2ncnc3[nH]ccc23)cn1` [Ruxolitinib, ruxolitinib], the Cmax in [1] (in vivo) was 7.1 µM.
Consider `C[C@@H]1CCN(C(=O)CC#N)C[C@@H]1N(C)c1ncnc2[nH]ccc12` [Tofacitinib, tofacitinib], for which, in data set [1] (setting [12]), the Cmax is 0.135 µM.
Regarding `CON=C(C(=O)NC1C(=O)N2C(C(=O)O)=C(CSC(=O)c3ccco3)CSC12)c1csc(N)n1` (stereo not drawn) [ceftiofur hydrochloride], the “effects on normal hCMs (viability, apoptosis, sarcomere organization)” value in [3] was “little effects”. Further, the “remdesivir-induced cardiotoxicity (cell viability), protection” value in the data set with remdesivir-treated hCMs is on record as “confirmed to reduce”.
For the compound `CCOC(=O)C1=C[C@@H](OC(CC)CC)[C@H](NC(C)=O)[C@@H](N)C1` [oseltamivir], in data set [2], the “associated adverse cardiac effect” value is given as “tachycardia”.
`OCCOCCN1CCN(C2=Nc3ccccc3Sc3ccccc32)CC1` [quetiapine fumarate]: the “effects on normal hCMs (viability, apoptosis, sarcomere organization)” value in data set [3] was “little effects”. The “remdesivir-induced cardiotoxicity (cell viability), protection” value with remdesivir-treated hCMs is recorded as “confirmed to reduce”.
Take `N[C@@H](CCC(=O)N[C@@H](CS)C(=O)NCC(=O)O)C(=O)O` [reduced L‐Glutathione]: the “could alter the level of ROS in hCMs” value in the data set with hCMs [9] was “neither”.
Regarding `Cc1ncc(C[n+]2csc(CCO)c2C)c(N)n1` [vitamin B1], the “could alter the level of ROS in hCMs” value with hCMs [9] is on record as “neither”.
On the same count and under the same terms, in the case of `O=C1O[C@H]([C@@H](O)CO)C(O)=C1O` [vitamin C] it was “neither”.
Regarding ivermectin, in data set [2], the “associated adverse cardiac effect” value was “tachycardia”. Further, in data set [1] (setting [12]), the Cmax is 0.049 µM.
